Assay results: publication PMC4326489, “Efficacy and pharmacokinetic evaluation of a novel anti-malarial compound (NP046) in a mouse model” (Malaria Journal, 2015)
≈ marks a conversion by molar mass, not a printed value.

Legend:
[1] = system: Plasmodium berghei transfected with green fluorescence protein (strain ANKA); assay: In vivo efficacy (four-day dosing) in P. berghei-infected mice, % parasitaemia by flow cytometry; design: species or system Plasmodium berghei in male C57BL/6 mice; conditions: 10 mg/kg oral, day five post-infection
Method: Plasmodium berghei transfected with green fluorescence protein (strain ANKA), a chloroquine-sensitive strain, was stored in liquid nitrogen. Parasites were thawed and administered intraperitoneally (IP) to infect two donor mice a week before the experiment commenced. […] Finally, each of the test animals received 200 μl of the P. berghei-infected RBCs (1×10^7 per 200 μl PBS) IP to infect them with the parasite. There were three animals per dose group, and each of them received 200 μl of NP046 in water orally and intravenously (volume adjusted relative to the weight of mouse) at their respective dose concentration as shown below:
The test compound was administered to the animals once a day for four days. […] Blood samples were collected via tail bleeding in tubes containing PBS on day 5, and % parasitaemia was determined with FACSCalibur™ using the software CellQuestPro [5].
Finally, the percentage parasite growth inhibition was calculated using the following equation [6]: [drawing 1]

[2] = Kinetic solubility (HPLC-UV); assay type: physicochemical; conditions: aqueous buffer, kinetic from dmso stock, PBS pH 2.0
Method: The concentration of the test compound (x) in PBS samples was calculated from the peak area (y) in its UV chromatogram by extrapolation from the three-point calibration line, using the equation y = ax + b; where a = slope and b = intercept.
Summary of the assay method for the determination kinetic solubility:
PBS was prepared and its pH adjusted to 2.0 and 7.4
primary stock solutions of the test compounds and controls (reserpine and hydrocortisone) in DMSO at 10 mM were prepared
Samples were briefly vortex mixed
samples were incubated for 2 hours while mixing in an incubator with orbital shaker at 200 rpm
samples were centrifuged at 3500 rpm for 15 minutes at 22 °C
the supernatant of the standards were transferred from the clear 96-well plate into an opaque, round bottom 96-well analysis plate, while the aqueous samples were filtered using a vacuum manifold through a multi-screen filter plate (MSRLN 0450, 0.4 µM), into the same opaque, round bottom 96-well plate
samples were analysed using HPLC-UV method by injecting the STDs in duplicate, and the samples in singlet.

Row | SMILES | % growth inhibition ([1]; relative to negative control (placebo)) | % parasitaemia ([1]; once a day for four days, mean ± S.E.M) | solubility at 2 h [2]
1 | CCN(CC)CCCC(C)Nc1ccnc2cc(Cl)ccc12 (stereo not drawn) [Positive control, chloroquine phosphate, reference compound] | 100% | 0.01 ± 0.0% | –
2 | COC(=O)[C@H]1[C@H]2C[C@@H]3c4[nH]c5cc(OC)ccc5c4CCN3C[C@H]2C[C@@H](OC(=O)c2cc(OC)c(OC)c(OC)c2)[C@@H]1OC [Reserpine, reference compound] | – | – | 193 µM (≈ 117 µg/mL)
